Measured values taken from ChEMBL document CHEMBL4219190, “Studies on synthesis of novel pyrido[2,3-d]pyrimidine derivatives, evaluation of their antimicrobial activity and molecular docking” (Bioorg Med Chem Lett, 2018).
≈ marks a conversion by molar mass, not a printed value. Calls of active or inactive are those of the source. The calls are words filed in the database; no cut-off is given here.

Assays:
Assay type in all cases: functional
[1] = tested on: Nakaseomyces glabratus; test: Fungicidal activity against Candida glabrata MTCC 3019 incubated for 24 hrs followed by transfer of microbial suspension to Sabouraud dextrose agar plates and measured after 24 hrs post transfer; settings: MTCC 3019, 24 h
[2] = tested on: Candida albicans; test: Fungicidal activity against Candida albicans MTCC 4748 incubated for 24 hrs followed by transfer of microbial suspension to Sabouraud dextrose agar plates and measured after 24 hrs post transfer
[3] = tested on: Candida albicans; test: Fungicidal activity against Candida albicans MTCC 3958 incubated for 24 hrs followed by transfer of microbial suspension to Sabouraud dextrose agar plates and measured after 24 hrs post transfer
[4] = tested on: Raoultella planticola; test: Antibacterial activity against Klebsiella planticola MTCC 530 after 24 hrs by well diffusion method
[5] = tested on: Pichia sporocuriosa; test: Fungicidal activity against Issatchenkia hanoiensis MTCC 4755 incubated for 24 hrs followed by transfer of microbial suspension to Sabouraud dextrose agar plates and measured after 24 hrs post transfer; settings: MTCC 4755, 24 h
[6] = tested on: Candida albicans; test: Antifungal activity against Candida albicans MTCC 183 after 24 hrs by well diffusion method; settings: MTCC 183, 24 h
[7] = tested on: Micrococcus luteus; test: Antibacterial activity against Micrococcus luteus MTCC 2470 after 24 hrs by well diffusion method
[8] = tested on: Staphylococcus aureus; test: Antibacterial activity against Staphylococcus aureus MTCC 96 after 24 hrs by well diffusion method
[9] = tested on: Candida albicans; test: Fungicidal activity against Candida albicans MTCC 183 incubated for 24 hrs followed by transfer of microbial suspension to Sabouraud dextrose agar plates and measured after 24 hrs post transfer; settings: MTCC 183, 24 h
[10] = tested on: Candida albicans; test: Antifungal activity against Candida albicans MTCC 3958 after 24 hrs by well diffusion method
[11] = tested on: Candida albicans; test: Antifungal activity against Candida albicans MTCC 3017 after 24 hrs by well diffusion method; settings: MTCC 3017, 24 h
[12] = tested on: [Candida] aaseri; test: Fungicidal activity against Candida aaseri MTCC 1962 incubated for 24 hrs followed by transfer of microbial suspension to Sabouraud dextrose agar plates and measured after 24 hrs post transfer; settings: Yamadazyma aaseri, MTCC 1962, 24 h
[13] = tested on: Candida albicans; test: Fungicidal activity against Candida albicans MTCC 1637 incubated for 24 hrs followed by transfer of microbial suspension to Sabouraud dextrose agar plates and measured after 24 hrs post transfer
[14] = tested on: Escherichia coli; test: Antibacterial activity against Escherichia coli MTCC 739 after 24 hrs by well diffusion method
[15] = tested on: Candida albicans; test: Antifungal activity against Candida albicans MTCC 854 after 24 hrs by well diffusion method; settings: MTCC 854, 24 h
[16] = tested on: Candida parapsilosis; test: Antifungal activity against Candida parapsilosis MTCC 1744 after 24 hrs by well diffusion method
[17] = tested on: Candida albicans; test: Antifungal activity against Candida albicans MTCC 1637 after 24 hrs by well diffusion method
[18] = tested on: Pichia sporocuriosa; test: Antifungal activity against Issatchenkia hanoiensis MTCC 4755 after 24 hrs by well diffusion method; settings: MTCC 4755, 24 h
[19] = tested on: Candida albicans; test: Fungicidal activity against Candida albicans MTCC 3017 incubated for 24 hrs followed by transfer of microbial suspension to Sabouraud dextrose agar plates and measured after 24 hrs post transfer; settings: MTCC 3017, 24 h
[20] = tested on: Candida albicans; test: Antifungal activity against Candida albicans MTCC 4748 after 24 hrs by well diffusion method
[21] = tested on: Candida albicans; test: Fungicidal activity against Candida albicans MTCC 7315 incubated for 24 hrs followed by transfer of microbial suspension to Sabouraud dextrose agar plates and measured after 24 hrs post transfer; settings: MTCC 7315, 24 h
[22] = tested on: Candida albicans; test: Fungicidal activity against Candida albicans MTCC 3018 incubated for 24 hrs followed by transfer of microbial suspension to Sabouraud dextrose agar plates and measured after 24 hrs post transfer
[23] = tested on: Staphylococcus aureus; test: Antibacterial activity against Staphylococcus aureus MLS16 MTCC 2940 after 24 hrs by well diffusion method
[24] = tested on: Candida albicans; test: Fungicidal activity against Candida albicans MTCC 854 incubated for 24 hrs followed by transfer of microbial suspension to Sabouraud dextrose agar plates and measured after 24 hrs post transfer; settings: MTCC 854, 24 h
[25] = tested on: Pichia kudriavzevii; test: Fungicidal activity against Candida krusei MTCC 3020 incubated for 24 hrs followed by transfer of microbial suspension to Sabouraud dextrose agar plates and measured after 24 hrs post transfer; settings: MTCC 3020, 24 h
[26] = tested on: Candida albicans; test: Fungicidal activity against Candida albicans MTCC 227 incubated for 24 hrs followed by transfer of microbial suspension to Sabouraud dextrose agar plates and measured after 24 hrs post transfer; settings: MTCC 227, 24 h
[27] = tested on: Pseudomonas aeruginosa; test: Antibacterial activity against Pseudomonas aeruginosa MTCC 2453 after 24 hrs by well diffusion method
[28] = tested on: Candida albicans; test: Antifungal activity against Candida albicans MTCC 227 after 24 hrs by well diffusion method; settings: MTCC 227, 24 h
[29] = tested on: Bacillus subtilis; test: Antibacterial activity against Bacillus subtilis MTCC 121 after 24 hrs by well diffusion method
[30] = tested on: Nakaseomyces glabratus; test: Antifungal activity against Candida glabrata MTCC 3019 after 24 hrs by well diffusion method; settings: MTCC 3019, 24 h
[31] = tested on: Candida albicans; test: Antifungal activity against Candida albicans MTCC 7315 after 24 hrs by well diffusion method; settings: MTCC 7315, 24 h
[32] = tested on: Candida albicans; test: Antifungal activity against Candida albicans MTCC 3018 after 24 hrs by well diffusion method
[33] = tested on: [Candida] aaseri; test: Antifungal activity against Candida aaseri MTCC 1962 after 24 hrs by well diffusion method; settings: Yamadazyma aaseri, MTCC 1962, 24 h
[34] = tested on: Pichia kudriavzevii; test: Antifungal activity against Candida krusei MTCC 3020 after 24 hrs by well diffusion method; settings: MTCC 3020, 24 h
[35] = tested on: Candida parapsilosis; test: Fungicidal activity against Candida parapsilosis MTCC 1744 incubated for 24 hrs followed by transfer of microbial suspension to Sabouraud dextrose agar plates and measured after 24 hrs post transfer

MIC [6]: 15.6 µg/mL (≈ 35.7 µM) | MIC [7]: inactive | MIC [8]: inactive | MIC [10]: inactive | MIC [11]: 15.6 µg/mL (≈ 35.7 µM) | MIC [14]: inactive | MIC [15]: 31.2 µg/mL (≈ 71.5 µM) | MIC [16]: inactive | MIC [17]: inactive | MIC [18]: 31.2 µg/mL (≈ 71.5 µM) | MIC [20]: inactive | MIC [23]: inactive | MIC [27]: inactive | MIC [28]: 31.2 µg/mL (≈ 71.5 µM) | MIC [29]: inactive | MIC [30]: 7.8 µg/mL (≈ 17.9 µM) | MIC [31]: 15.6 µg/mL (≈ 35.7 µM) | MIC [32]: inactive | MIC [33]: 15.6 µg/mL (≈ 35.7 µM) | MIC [34]: 15.6 µg/mL (≈ 35.7 µM)
SMILES: CCCNC(=O)c1nc(-c2ccccc2)c2c(C(F)(F)F)cc(-c3ccccc3)nc2n1
MFC [1]: 15.6 µg/mL (≈ 35.7 µM) | MFC [2]: inactive | MFC [3]: inactive | MIC [4]: inactive | MFC [5]: 62.5 µg/mL (≈ 143 µM) | MFC [9]: 31.2 µg/mL (≈ 71.5 µM) | MFC [12]: 15.6 µg/mL (≈ 35.7 µM) | MFC [13]: inactive | MFC [19]: 15.6 µg/mL (≈ 35.7 µM) | MFC [21]: 31.2 µg/mL (≈ 71.5 µM) | MFC [22]: inactive | MFC [24]: 62.5 µg/mL (≈ 143 µM) | MFC [25]: 31.2 µg/mL (≈ 71.5 µM) | MFC [26]: 31.2 µg/mL (≈ 71.5 µM) | MFC [35]: inactive
